{"source": "patent US20240316023A1", "about": "“BENEDIN, PIPERIDINE, 2-BENZHYDRYL-3-HYDROXY-N-METHYL-, HYDROCHLORIDE AND DERIVATIVES THEREOF FOR USE IN TREATING KLEINE-LEVIN SYNDROME” (priority 2021, published 2024)", "key": {"[1]": {"biological_target": "T1, NET (h) (antagonist radioligand) (Homo sapiens, UniProt P23975)", "T1 construct": "CEREP (Eurofins, France), contract panel", "T1 sequence (P23975 whole entry)": "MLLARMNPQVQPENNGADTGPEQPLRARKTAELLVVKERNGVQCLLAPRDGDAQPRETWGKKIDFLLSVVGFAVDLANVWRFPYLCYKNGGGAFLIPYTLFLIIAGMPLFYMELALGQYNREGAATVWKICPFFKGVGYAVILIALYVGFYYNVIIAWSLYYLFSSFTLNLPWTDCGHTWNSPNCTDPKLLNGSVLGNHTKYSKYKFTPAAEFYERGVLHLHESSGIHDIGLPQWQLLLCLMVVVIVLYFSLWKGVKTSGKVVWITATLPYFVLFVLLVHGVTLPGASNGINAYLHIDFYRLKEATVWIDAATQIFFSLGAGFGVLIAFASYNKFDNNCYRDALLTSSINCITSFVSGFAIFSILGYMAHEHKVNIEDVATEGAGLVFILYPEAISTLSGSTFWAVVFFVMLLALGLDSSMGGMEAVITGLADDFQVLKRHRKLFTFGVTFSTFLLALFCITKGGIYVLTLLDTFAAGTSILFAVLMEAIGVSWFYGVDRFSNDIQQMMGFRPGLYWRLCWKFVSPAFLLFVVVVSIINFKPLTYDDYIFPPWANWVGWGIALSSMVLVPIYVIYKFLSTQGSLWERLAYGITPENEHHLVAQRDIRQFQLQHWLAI", "assay": "Radioligand binding panel (Eurofins/CEREP), NET", "conditions": "% inhibition of control specific binding", "description": "(§1) Benedin was tested at 10^−5 M, calculated as a % inhibition of control specific binding of a radioactively labeled ligand specific for each target.\n(§2) This binding profile panel was broadly defined with roughly an equal number of selective, central and peripheral therapeutically relevant targets, including native animal tissues, radioligands and specific enzymes involved in cell cycle regulation in accordance with Eurofins Standard Operating Procedure.\n(§3) For radioligand binding experiments, the half maximal inhibitory concentration (IC50) and the half maximal effective concentration (EC50) values were determined (via computer software) by nonlinear regression analysis of the competition curves using Hill equation curve fitting. The inhibition constants (Ki) were calculated using the Cheng-Prusoff equation (Ki=IC50/(1+(L/KD)), where L is the concentration of radioligand in the assay, and KD is the affinity of the radioligand for the receptor.^60\n(§4) The results are expressed as a % control specific binding ([measured specific binding/control specific binding]×100) and as a % inhibition of control specific binding (100−[(measured specific binding/control specific binding)×100] obtained in the presence of the test compounds. […]"}, "[2]": {"biological_target": "T2, M2 (h) (antagonist radioligand) (Homo sapiens, UniProt P08172)", "T2 construct": "CEREP (Eurofins, France), contract panel", "T2 sequence (P08172 1-466)": "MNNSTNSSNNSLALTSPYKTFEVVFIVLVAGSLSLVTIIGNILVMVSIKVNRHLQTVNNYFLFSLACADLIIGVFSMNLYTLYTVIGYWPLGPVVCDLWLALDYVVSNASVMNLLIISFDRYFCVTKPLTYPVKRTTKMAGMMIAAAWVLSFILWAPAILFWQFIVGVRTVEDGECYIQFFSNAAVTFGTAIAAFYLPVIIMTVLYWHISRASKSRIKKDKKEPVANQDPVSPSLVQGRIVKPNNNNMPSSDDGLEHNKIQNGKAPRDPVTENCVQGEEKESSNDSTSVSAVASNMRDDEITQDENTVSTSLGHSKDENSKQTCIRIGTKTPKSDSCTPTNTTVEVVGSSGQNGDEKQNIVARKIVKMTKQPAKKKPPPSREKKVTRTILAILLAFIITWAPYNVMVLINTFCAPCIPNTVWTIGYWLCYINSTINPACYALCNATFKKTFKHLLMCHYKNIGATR", "assay": "Radioligand binding panel (Eurofins/CEREP), M2", "conditions": "10^−5 M; % inhibition of control specific binding; read-out: % Inhibition at 10^−5M Benedin", "description": "as §1, §2, §3, §4"}, "[3]": {"biological_target": "T3, Kappa (h) (KOP) (agonist radioligand) (Homo sapiens, UniProt P41145)", "T3 construct": "CEREP (Eurofins, France), contract panel", "T3 sequence (P41145 whole entry)": "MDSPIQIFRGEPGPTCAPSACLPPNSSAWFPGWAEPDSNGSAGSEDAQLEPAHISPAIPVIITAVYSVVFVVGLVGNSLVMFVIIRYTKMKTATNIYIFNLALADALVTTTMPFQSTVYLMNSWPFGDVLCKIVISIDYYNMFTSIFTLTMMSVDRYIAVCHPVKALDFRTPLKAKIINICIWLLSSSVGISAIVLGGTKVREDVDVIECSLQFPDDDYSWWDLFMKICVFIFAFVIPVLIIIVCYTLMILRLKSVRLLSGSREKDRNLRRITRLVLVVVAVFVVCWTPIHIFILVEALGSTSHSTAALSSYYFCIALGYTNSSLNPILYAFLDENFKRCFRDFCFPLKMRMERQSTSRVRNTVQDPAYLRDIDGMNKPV", "assay": "Radioligand binding panel (Eurofins/CEREP), kappa opioid", "conditions": "10^−5 M; % inhibition of control specific binding; read-out: % Inhibition at 10^−5M Benedin", "description": "as §1, §2, §3, §4"}}, "data": [{"smiles": "CN1CCCC(O)C1C(c1ccccc1)c1ccccc1", "note": "(stereo not shown) [Benedin, 2-benzhydryl-3-hydroxy-N-methyl-piperidine]", "values": [{"measurement": "inhibition at 10 µM", "setting": "[1]; 10^−5 M, read-out: % Inhibition at 10^−5M Benedin", "result": 71.9, "unit": "%"}, {"measurement": "% Inhibition at 10^−5M Benedin", "setting": "[1]", "result": "appreciable potencies"}, {"measurement": "inhibition at 10 µM", "setting": "[2]", "result": 65, "unit": "%"}, {"measurement": "inhibition at 10 µM", "setting": "[3]", "result": 39.2, "unit": "%"}]}]}
